Laboratory results reported in patent US4603217A, “Ester substituted alkyl-2-(2,6-dichloroanilino)phenyl acetates” (priority 1983, dated 1986).

Tests used:
[1] = Gastrointestinal ulcer formation action (gastric ulceration); conditions: rat, po
Protocol: Gastrointestinal ulcer formation action, which is a principal side effect of an acid anti-inflammatory drug, was investigated according to the method of Okabe et al [cf. […] The compounds of the present invention, IM, DF and acemethacin were suspended in 5% Tween-80 solution and administered orally 1 ml/100 g body weight to the rats, respectively. At 6 hrs after the administration, the state of glandstomach was observed by means of a dissecting microscope whether the ulcer having a diameter more than 1 mm was generated or not.

carrageenan edema = test: inhibition test of carrageenan edema employing a foot-pad edema method; type: in vivo, male Wister rats; conditions: for ED50: Rattus norvegicus, male Wister rats, foot-pad edema, read-out: ED50 for inhibition for carrageenan edema; for anti-inflammatory activity compared with DF: relative to DF
Source text: Anti-inflammatory action was investigated according to the method of Winter et al [cf. Pro. Soc. Exp. Biol. Med., 111, 544 (1962)] by the inhibition test of carrageenan edema employing a foot-pad edema method using carrageenan as an irritating agent and male Wister rats weighing 130 to 170 g.

in vivo = conditions: mouse, po
[2] = Rate of hydrolysis in rat plasma; type: in vitro ADME; conditions: in 1 ml of plasma rat (37° C., incubation for 1 hr)
Protocol: **in 1 ml of plasma rat (37° C., incubation for 1 hr)

ultraviolet erythema = test: inhibition action for ultraviolet erythema; type: in vivo, male Hartley guinea pigs; design: 2 hs after the irradiation, Average ± standard error / 3 hs after the irradiation, Average ± standard error / 5 hs after the irradiation, Average ± standard error: scale not given here; 2 hs after the irradiation, Rate for inhibition / 3 hs after the irradiation, Rate for inhibition / 5 hs after the irradiation, Rate for inhibition: unit not given here; conditions: for 2 hs after the irradiation, Average ± standard error / 2 hs after the irradiation, Rate for inhibition: 2 hs after irradiation; for 3 hs after the irradiation, Average ± standard error / 3 hs after the irradiation, Rate for inhibition: 3 hs after irradiation; for 5 hs after the irradiation, Average ± standard error / 5 hs after the irradiation, Rate for inhibition: 5 hs after irradiation
Protocol: With respect to Compounds 1 to 3, 15 and 21 which are especially useful as an anti-inflammatory drug, IM and DF, inhibition action for ultraviolet erythema was investigated according to the method of Adames et al [cf. Nature, London, 181, 773 (1958)] using guinea pigs as follows: Male Hartley guinea pigs weighing 250 to 350 g were shaved at their sides the day before and two hrs before the ultraviolet irradiation. To the guinea pigs were administered orally Compounds 1 to 3, 15 and 21, IM and DF in amounts as described in Table 2, respectively. To the control group was administered orally only Tween-80. At 1 hr after the time of administration, the guinea pigs were irradiated at their shaved sides by ultraviolet beam for 40 seconds.
The reaction of the ultraviolet erythema was evaluated at 2 hrs, 3 hrs and 5 hrs after irradiation according to the method of Winder et al [cf. Arch. Int. Pharmacodyn., 116, 261 (1958)]. […] Compounds 1 and 2 show a duration of the pharmacological effect over 5 hrs, contrary to that IM has a duration of 2 hrs.

| SMILES | ED50 (carrageenan edema) | LD50 (in vivo) | metabolised at 1 h [2] | TD50 at 6 h [1] | further results |
| --- | --- | --- | --- | --- | --- |
| COc1ccc2c(c1)c(CC(=O)OCC(=O)O)c(C)n2C(=O)c1ccc(Cl)cc1 [Acemethacin, acemethacin, reference compound] | 8.3 mg/kg | 45 mg/kg | 4.2% |  | TD50 at 6 h ([1]; in vivo): 17.5 mg/kg |
| COc1ccc2c(c1)c(CC(=O)OCOC(=O)C=C(C)C)c(C)n2C(=O)c1ccc(Cl)cc1 [Compound 2, 3,3-Dimethylacryloyloxymethyl[1-(p-chlorobenzoyl)-5-methoxy-2-methyl-3-indolyl]acetate] | 6 mg/kg | 67 mg/kg | 78% | 20 mg/kg | anti-inflammatory activity compared with IM (carrageenan edema; relative to IM): equal anti-inflammatory activity to IM; 2 hs after the irradiation, Average ± standard error (ultraviolet erythema; 3 mg/kg orally, guinea pigs): 1.83 ± 0.297; 2 hs after the irradiation, Rate for inhibition (ultraviolet erythema; 3 mg/kg orally, guinea pigs): 31.5; 3 hs after the irradiation, Average ± standard error (ultraviolet erythema; 3 mg/kg orally, guinea pigs): 1.83 ± 0.207; 3 hs after the irradiation, Rate for inhibition (ultraviolet erythema; 3 mg/kg orally, guinea pigs): 35.3; 5 hs after the irradiation, Average ± standard error (ultraviolet erythema; 3 mg/kg orally, guinea pigs): 2.0 ± 0.174; 5 hs after the irradiation, Rate for inhibition (ultraviolet erythema; 3 mg/kg orally, guinea pigs): 29.3; 2 hs after the irradiation, Average ± standard error (ultraviolet erythema; 10 mg/kg orally, guinea pigs): 0.83 ± 0.241; 2 hs after the irradiation, Rate for inhibition (ultraviolet erythema; 10 mg/kg orally, guinea pigs): 68.9; 3 hs after the irradiation, Average ± standard error (ultraviolet erythema; 10 mg/kg orally, guinea pigs): 0.83 ± 0.241; 3 hs after the irradiation, Rate for inhibition (ultraviolet erythema; 10 mg/kg orally, guinea pigs): 70.7; 5 hs after the irradiation, Average ± standard error (ultraviolet erythema; 10 mg/kg orally, guinea pigs): 1.0 ± 0.369; 5 hs after the irradiation, Rate for inhibition (ultraviolet erythema; 10 mg/kg orally, guinea pigs): 64.7; duration of the pharmacological effect (ultraviolet erythema; ultraviolet erythema, guinea pigs, oral): over 5 hrs |
| C/C=C/C(=O)OCCOC(=O)Cc1c(C)n(C(=O)c2ccc(Cl)cc2)c2ccc(OC)cc12 [Compound 4] | 15 mg/kg | 85 mg/kg | 83% | 40 mg/kg |  |
| COc1ccc2c(c1)c(CC(=O)OCCOC(=O)C=C(C)C)c(C)n2C(=O)c1ccc(Cl)cc1 [Compound 5, 2-(3,3-Dimethylacryloyloxy)ethyl[1-(p-chlorobenzoyl)-5-methoxy-2-methyl-3-indolyl]acetate] | 15 mg/kg | 62 mg/kg | 75.3% | 40 mg/kg |  |
| CC=CC=CC(=O)OCCOC(=O)Cc1c(C)n(C(=O)c2ccc(Cl)cc2)c2ccc(OC)cc12 [Compound 6, 2-(2,4-Hexadienoyloxy)ethyl[1-(p-chlorobenzoyl)-5-methoxy-2-methyl-3-indolyl]acetate] | 13 mg/kg | 85 mg/kg | 69% | 40 mg/kg |  |
| COc1ccc2c(c1)c(CC(=O)OCCOC(=O)C=C(C)CCC=C(C)C)c(C)n2C(=O)c1ccc(Cl)cc1 [Compound 7, 2-(3,7-Dimethyl-2,6-octadienoyloxy)ethyl[1-(p-chlorobenzoyl)-5-methoxy-2-methyl-3-indolyl]acetate] | > 20 mg/kg | 780 mg/kg | 60.5% | > 20 mg/kg |  |
| COc1ccc2c(c1)c(CC(=O)OC(C)OC(C)=O)c(C)n2C(=O)c1ccc(Cl)cc1 (centres unmarked) [Compound 8, 1-(Acetoxy)ethyl[1-(p-chlorobenzoyl)-5-methoxy-2-methyl-3-indolyl]acetate] | 6 mg/kg | 65 mg/kg | 99.8% | 20 mg/kg |  |
| CCC(=O)OC(C)OC(=O)Cc1c(C)n(C(=O)c2ccc(Cl)cc2)c2ccc(OC)cc12 (centres unmarked) [Compound 9, 1-(Propionyloxy)ethyl[1-(p-chlorobenzoyl)-5-methoxy-2-methyl-3-indolyl]acetate] | 6 mg/kg | 65 mg/kg | 97.3% | 20 mg/kg |  |
| COc1ccc2c(c1)c(CC(=O)OC(C)OC(=O)C=C(C)C)c(C)n2C(=O)c1ccc(Cl)cc1 (centres unmarked) [Compound 11, 1-(3,3-Dimethylacryloyloxy)ethyl[1-(p-chlorobenzoyl)-5-methoxy-2-methyl-3-indolyl]acetate] | 15 mg/kg | 45 mg/kg | 85.4% | 10 mg/kg |  |
| CC=CC=CC(=O)OC(C)OC(=O)Cc1c(C)n(C(=O)c2ccc(Cl)cc2)c2ccc(OC)cc12 (centres unmarked) [Compound 12, 1-(2,4-Hexadienoyloxy)ethyl[1-(p-chlorobenzoyl)-5-methoxy-2-methyl-3-indolyl]acetate] | > 20 mg/kg | 640 mg/kg | 80.4% | > 20 mg/kg |  |
| C/C=C/C(=O)OCOC(=O)Cc1ccccc1Nc1c(Cl)cccc1Cl [Compound 13, Crotonoyloxymethyl-2-(2,6-dichloroanilino)-phenylacetate] | < 30 mg/kg | 400 mg/kg | 89.7% | 30 mg/kg |  |
| CC(C)=CC(=O)OCOC(=O)Cc1ccccc1Nc1c(Cl)cccc1Cl [Compound 14, 3,3-Dimethylacryloyloxymethyl-2-(2,6-dichloroanilino)phenylacetate] | < 30 mg/kg | 455 mg/kg | 83.4% | 30 mg/kg |  |
| CC=CC=CC(=O)OCOC(=O)Cc1ccccc1Nc1c(Cl)cccc1Cl [Compound 15, 2,4-Hexadienoyloxymethyl-2-(2,6-dichloroanilino)phenylacetate] | 20 mg/kg | 500 mg/kg | 80.5% |  | anti-inflammatory activity compared with DF (carrageenan edema): almost equal anti-inflammatory activity to DF; 2 hs after the irradiation, Average ± standard error (ultraviolet erythema; 3 mg/kg orally, guinea pigs): 1.17 ± 0.167; 2 hs after the irradiation, Rate for inhibition (ultraviolet erythema; 3 mg/kg orally, guinea pigs): 56.2; 3 hs after the irradiation, Average ± standard error (ultraviolet erythema; 3 mg/kg orally, guinea pigs): 2.0 ± 0.258; 3 hs after the irradiation, Rate for inhibition (ultraviolet erythema; 3 mg/kg orally, guinea pigs): 29.3; 5 hs after the irradiation, Average ± standard error (ultraviolet erythema; 3 mg/kg orally, guinea pigs): 3.00 ± 0; 5 hs after the irradiation, Rate for inhibition (ultraviolet erythema; 3 mg/kg orally, guinea pigs): 0; 2 hs after the irradiation, Average ± standard error (ultraviolet erythema; 10 mg/kg orally, guinea pigs): 0.67 ± 0.211; 2 hs after the irradiation, Rate for inhibition (ultraviolet erythema; 10 mg/kg orally, guinea pigs): 74.9; 3 hs after the irradiation, Average ± standard error (ultraviolet erythema; 10 mg/kg orally, guinea pigs): 2.3 ± 0.333; 3 hs after the irradiation, Rate for inhibition (ultraviolet erythema; 10 mg/kg orally, guinea pigs): 18.7; 5 hs after the irradiation, Average ± standard error (ultraviolet erythema; 10 mg/kg orally, guinea pigs): 2.83 ± 0.167; 5 hs after the irradiation, Rate for inhibition (ultraviolet erythema; 10 mg/kg orally, guinea pigs): 0; inhibition effect for ultraviolet erythema compared with IM and DF (ultraviolet erythema; relative to IM and DF): equal inhibition effect for ultraviolet erythema to that of IM and DF |
| CC(=O)OCCOC(=O)Cc1ccccc1Nc1c(Cl)cccc1Cl [Compound 16, 2-(Acetoxy)ethyl-2-(2,6-dichloroanilino)-phenylacetate] | 20 mg/kg | 610 mg/kg | 93.7% |  | anti-inflammatory activity compared with DF (carrageenan edema): almost equal anti-inflammatory activity to DF |
| CC(C)=CC(=O)OCCOC(=O)Cc1ccccc1Nc1c(Cl)cccc1Cl [Compound 17, 2-(3,3-Dimethylacryloyloxy)ethyl-2-(2,6-dichloroanilino)phenylacetate] | 30 mg/kg | 400 mg/kg | 78.4% | 30 mg/kg |  |
| CC(=O)OC(C)OC(=O)Cc1ccccc1Nc1c(Cl)cccc1Cl (centres unmarked) [Compound 18, 1-(Acetoxy)ethyl-2-(2,6-dichloroanilino)-phenylacetate] | 20 mg/kg | 295 mg/kg | 96.1% | 30 mg/kg | anti-inflammatory activity compared with DF (carrageenan edema): almost equal anti-inflammatory activity to DF |
| C/C=C/C(=O)OC(C)OC(=O)Cc1ccccc1Nc1c(Cl)cccc1Cl (centres unmarked) [Compound 19, 1-(Crotonoyloxy)ethyl-2-(2,6-dichloroanilino)phenylacetate] | < 30 mg/kg | 380 mg/kg | 86% | 30 mg/kg |  |
| CC(C)=CC(=O)OC(C)OC(=O)Cc1ccccc1Nc1c(Cl)cccc1Cl (centres unmarked) [Compound 20, 1-(3,3-Dimethylacryloyloxy)ethyl-2-(2,6-dichloroanilino)phenylacetate] | 20 mg/kg | 460 mg/kg | 80.3% | 30 mg/kg | anti-inflammatory activity compared with DF (carrageenan edema): almost equal anti-inflammatory activity to DF |
